Reference: patent US20240132450A1, “MODULATORS OF G PROTEIN-COUPLED RECEPTOR 88” (ACADIA Pharmaceuticals Inc., priority 2020, published 2024)

Target: hGPR88 receptor (Homo sapiens, UniProt Q9GZN0)
Assay: hGPR88-HEK cAMP accumulation assay
Conditions: GRP88 agonist activity (EC50), HEK-293 cells expressing human recombinant GPR88, forskolin 200 nM, High/Medium/Low bands
Procedure: Biological Assay 1: hGPR88-HEK cAMP Accumulation Assay
Cryopreserved vials of HEK-293 cells expressing human recombinant GPR88 receptor are re-suspended in KRH assay buffer and 5 μl of cell solution is suspended in test wells at a seeding density of 2500±500 cells per well using the multidrop to provide a final reaction volume of 10 μl containing 0.5% DMSO. Assay plate is incubated for 30 min at room temperature and the reaction is terminated by addition of 5 μl of each of the cAMP detection reagents of the cAMP Gi kit (Cisbio Bioassays, 62AM9PEJ), diluted in cell lysis buffer, to each well using the multidrop in the following order: first the cAMP-d2 conjugate, then the anti-cAMP cryptate conjugate. […] Raw counts were converted to cAMP concentrations via a standard curve before EC50 and Emax determination. Data is expressed as % decrease in forskolin stimulated cAMP compared to cells treated with vehicle alone in the same buffer and on the same plate.

hGPR88 receptor, sequence (Q9GZN0 whole entry): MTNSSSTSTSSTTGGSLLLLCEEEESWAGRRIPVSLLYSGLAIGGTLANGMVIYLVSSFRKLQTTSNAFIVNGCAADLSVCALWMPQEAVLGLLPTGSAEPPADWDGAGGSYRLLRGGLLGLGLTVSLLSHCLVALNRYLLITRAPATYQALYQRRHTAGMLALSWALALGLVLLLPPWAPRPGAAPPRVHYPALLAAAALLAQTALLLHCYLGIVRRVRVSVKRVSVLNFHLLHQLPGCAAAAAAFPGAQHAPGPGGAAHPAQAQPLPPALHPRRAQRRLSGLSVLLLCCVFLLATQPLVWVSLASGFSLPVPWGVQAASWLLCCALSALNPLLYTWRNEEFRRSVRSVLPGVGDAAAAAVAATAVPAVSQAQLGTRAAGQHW

Structure (SMILES)	EC50 [µM]
COCc1ccc(-c2ccc(NC(=O)C(C)(C)Oc3ccccc3)cc2)cc1 [Example 4, N-(4′-(methoxymethyl)-[1,1′-biphenyl]-4-yl)-2-methyl-2-phenoxypropanamide]	< 1
COCc1ccc(-c2ccc3c(c2)CCN3C(=O)C(C)(C)Oc2ccc(F)cc2)cc1 [Example 32, 2-(4-fluorophenoxy)-1-(5-(4-(methoxymethyl)phenyl)indolin-1-yl)-2-methylpropan-1-one]	1 to 5
COCc1ccc(-c2ccc(NC(=O)C3(Oc4ccc(F)cc4)CC3)cc2)cc1 [Example 53, 1-(4-fluorophenoxy)-N-(4′-(methoxymethyl)-[1,1′-biphenyl]-4-yl)cyclopropane-1-carboxamide]	< 1
CC(C)(Oc1ccc(F)cc1)C(=O)Nc1ccc(-c2ccc(CN3CCOCC3)cc2)cc1 [Example 25, 2-(4-fluorophenoxy)-2-methyl-N-(4′-(morpholinomethyl)-[1,1′-biphenyl]-4-yl)propenamide]	< 1
CC(C)Oc1ccc(-c2ccc(NC(=O)C(C)(C)Oc3ccc(F)cc3)cc2)cn1 [Example 92, 2-(4-fluorophenoxy)-N-(4-(6-isopropoxypyridin-3-yl)phenyl)-2-methylpropanamide]	< 1
COCc1ccc(-c2ccc(NC(=O)C(C)(C)Oc3cccc(OC)c3)cc2)cc1 [Example 98, N-(4′-(methoxymethyl)-[1,1′-biphenyl]-4-yl)-2-(3-methoxyphenoxy)-2-methylpropanamide]	1 to 5
CCOc1ccc(-c2ccc(NC(=O)C(C)(C)Oc3ccc(F)cc3)cc2)cc1 [Example 51, N-(4′-ethoxy-[1,1′-biphenyl]-4-yl)-2-(4-fluorophenoxy)-2-methylpropanamide]	> 5
COCc1ccc(-c2ccc(NC(=O)C(C)(C)Oc3ccc(C(C)C)cc3)cc2)cc1 [Example 60, 2-(4-isopropylphenoxy)-N-(4′-(methoxymethyl)-[1,1′-biphenyl]-4-yl)-2-methylpropanamide]	< 1
CC(C)(Oc1ccc(F)cc1)C(=O)Nc1ccc(-c2ccc(COC3CC3)cc2)cc1 [Example 132, N-(4′-(cyclopropoxymethyl)-[1,1′-biphenyl]-4-yl)-2-(4-fluorophenoxy)-2-methylpropanamide]	1 to 5
CCCc1ccc(-c2ccc(NC(=O)C(C)(C)Oc3ccc(F)cc3)cc2)cc1 [Example 84, 2-(4-fluorophenoxy)-2-methyl-N-(4′-propyl-[1,1′-biphenyl]-4-yl)propanamide]	> 5
COCc1ccc(-c2ccc(NC(=O)C(C)(C)Cc3ccc(F)cc3)cc2)cc1 [Example 55, 3-(4-fluorophenyl)-N-(4′-(methoxymethyl)-[1,1′-biphenyl]-4-yl)-2,2-dimethylpropanamide]	< 1
COCc1ccc(-c2ccc(NC(=O)C(C)(C)Oc3cccc(C(F)(F)F)c3)cc2)cc1 [Example 100, N-(4′-(methoxymethyl)-[1,1′-biphenyl]-4-yl)-2-methyl-2-(3-(trifluoromethyl)phenoxy)propanamide]	1 to 5
CC(C)(Oc1ccc(F)cc1)C(=O)Nc1ccc(-c2ccc3c(c2)OCO3)cc1 [Example 88, N-(4-(benzo[d][1,3]dioxol-5-yl)phenyl)-2-(4-fluorophenoxy)-2-methylpropanamide]	1 to 5
COCc1ccc(-c2ccc(NC(=O)C3CC3c3ccccn3)cc2)cc1 (single isomer, unassigned) [Example 19, N-(4′-(methoxymethyl)-[1,1′-biphenyl]-4-yl)-2-(pyridin-2-yl)cyclopropane-1-carboxamide]	> 5
CN(C)c1ncc(-c2ccc(NC(=O)C(C)(C)Oc3ccc(C#N)cc3)cc2)cn1 [Example 117, 2-(4-cyanophenoxy)-N-(4-(2-(dimethylamino)pyrimidin-5-yl)phenyl)-2-methylpropanamide]	1 to 5
COCc1ccc(-c2ccc(NC(=O)C(C)(C)Oc3cccc(F)c3)cc2)cc1 [Example 62, 2-(3-fluorophenoxy)-N-(4′-(methoxymethyl)-[1,1′-biphenyl]-4-yl)-2-methylpropanamide]	< 1
COCc1ccc(-c2ccc(NC(=O)C(C)(C)Oc3ccc(Br)cc3)cc2)cc1 [Example 59, 2-(4-bromophenoxy)-N-(4′-(methoxymethyl)-[1,1′-biphenyl]-4-yl)-2-methylpropanamide]	< 1

Structure (SMILES)	EC50 [µM]
COC(C)c1ccc(-c2ccc(NC(=O)C(C)(C)Oc3ccc(F)cc3)cc2)cc1 (stereo not shown) [Example 119, 2-(4-fluorophenoxy)-N-(4′-(1-methoxyethyl)-[1,1′-biphenyl]-4-yl)-2-methylpropanamide]	1 to 5
COCc1ccc(-c2ccc(N(CC(C)C)C(=O)C(C)(C)Oc3ccc(F)cc3)cc2)cc1 [Example 23, 2-(4-fluorophenoxy)-N-isobutyl-N-(4′-(methoxymethyl)-[1,1′-biphenyl]-4-yl)-2-methylpropanamide]	> 5
COCc1ccc(-c2ccc(NC(=O)C(C)(C)Oc3cccc(Cl)c3)cc2)cc1 [Example 65, 2-(3-chlorophenoxy)-N-(4′-(methoxymethyl)-[1,1′-biphenyl]-4-yl)-2-methylpropanamide]	< 1
CN(C)c1ncc(-c2ccc(NC(=O)C3(Oc4ccc(F)cc4)CC3)cc2)cn1 [Example 107, N-(4-(2-(dimethylamino)pyrimidin-5-yl)phenyl)-1-(4-fluorophenoxy)cyclopropane-1-carboxamide]	1 to 5
COCc1ccc(-c2ccc(NC(=O)C(C)(C)Cc3ccccc3)cc2)cc1 [Example 56, N-(4′-(methoxymethyl)-[1,1′-biphenyl]-4-yl)-2,2-dimethyl-3-phenylpropanamide]	1 to 5
O=C(Nc1ccc(-c2ccc(CN3CCOCC3)cc2)cc1)C1(Oc2ccc(F)cc2)CC1 [Example 129, 1-(4-fluorophenoxy)-N-(4′-(morpholinomethyl)-[1,1′-biphenyl]-4-yl)cyclo propane-1-carboxamide]	< 1
CC(c1ccc(-c2ccc(NC(=O)C(C)(C)Oc3ccc(F)cc3)cc2)cc1)N1CCOCC1 (single isomer, unassigned) [Example 123, 2-(4-fluorophenoxy)-2-methyl-N-(4′-(1-morpholinoethyl)-[1,1′-biphenyl]-4-yl)propanamide]	< 1
CC(C)Oc1ccc(-c2ccc(NC(=O)C3CC3c3ccccn3)cc2)cn1 (single isomer, unassigned) [Example 134, N-(4-(6-isopropoxypyridin-3-yl)phenyl)-2-(pyridin-2-yl)cyclopropane-1-carboxamide]	> 5
CC(C)Oc1ccc(-c2ccc(NC(=O)C(C)(C)Oc3ccc(F)cc3)cc2)cc1 [Example 46, 2-(4-fluorophenoxy)-N-(4′-isopropoxy-[1,1′-biphenyl]-4-yl)-2-methylpropanamide]	< 1
CCOc1ccc(-c2ccc(NC(=O)C(C)(C)Oc3ccccn3)cc2)cn1 [Example 140, N-(4-(6-ethoxypyridin-3-yl)phenyl)-2-methyl-2-(pyridin-2-yloxy)propanamide]	1 to 5
COCc1ccc(-c2ccc(N(CCO)C(=O)C(C)(C)Oc3ccc(F)cc3)cc2)cc1 [Example 33, 2-(4-fluorophenoxy)-N-(2-hydroxyethyl)-N-(4′-(methoxymethyl)-[1,1′-biphenyl]-4-yl)-2-methylpropanamide]	1 to 5
COc1ccc(-c2ccc(NC(=O)C(C)(C)Oc3ccc(F)cc3)cc2)cc1 [Example 11, 2-(4-fluorophenoxy)-N-(4′-methoxy-[1,1′-biphenyl]-4-yl)-2-methylpropanamide]	> 5
CCCN(C(=O)C(C)(C)Oc1ccc(F)cc1)c1ccc(-c2ccc(C)cc2)cc1 [Example 20, 2-(4-fluorophenoxy)-2-methyl-N-(4′-methyl-[1,1′-biphenyl]-4-yl)-N-propylpropanamide]	> 5
CC(C)(Oc1ccc(F)cc1)C(=O)Nc1ccc(-c2ccc(OC3CC3)cc2)cc1 [Example 41, N-(4′-cyclopropoxy-[1,1′-biphenyl]-4-yl)-2-(4-fluorophenoxy)-2-methylpropanamide]	> 5
CC(C)(Oc1ccc(F)cc1)C(=O)Nc1ccc(-c2ccc(CN3CCOCC3)cc2)cn1 [Example 81, 2-(4-fluorophenoxy)-2-methyl-N-(5-(4-(morpholinomethyl)phenyl)pyridin-2-yl)propanamide]	< 1
O=C(Nc1ccc(-c2ccc(CN3CCOCC3)cc2)cc1)C1CC1c1ccccn1 (racemic) [Example 37, (1R*,2R*)-N-(4′-(morpholinomethyl)-[1,1′-biphenyl]-4-yl)-2-(pyridin-2-yl)cyclopropane-1-carboxamide]	1 to 5
Cc1ccc(-c2ccc(N(CC(C)C)C(=O)C(C)(C)Oc3ccc(F)cc3)cc2)cc1 [Example 21, 2-(4-fluorophenoxy)-N-isobutyl-2-methyl-N-(4′-methyl-[1,1′-biphenyl]-4-yl)-2-methylpropanamide]	> 5

Same assay, conditions: read-out: GRP88 agonist activity (EC50); HEK-293 cells expressing human recombinant GPR88, forskolin 200 nM, High/Medium/Low bands

Structure (SMILES)	EC50 [µM]
COCc1ccc(-c2ccc(N(CC(C)(C)O)C(=O)C3CC3c3ccccn3)cc2)cc1 (stereo not shown) [Example 142, N-(2-hydroxy-2-methylpropyl)-N-(4′-(methoxymethyl)-[1,1′-biphenyl]-4-yl)-2-(pyridin-2-yl)cyclopropane-1-carboxamide]	> 5

Test system: not listed separately
Assay: Hepatocyte stability (mouse)
Format: in vitro ADME
Conditions: mouse, cryopreserved pooled hepatocytes in suspension, test compound 3 μM, 60 min, read-out: Mouse heps Clint
Procedure: (iii) Hepatocyte Stability (Human, Mouse, Rat or Dog)
Test compound (3 μM) is incubated with cryopreserved hepatocytes in suspension. Samples are removed at 6 time points over the course of a 60 min experiment and test compound is analysed by LC-MS/MS. An intrinsic clearance value (CLint) with standard error and half-life (t %) are calculated. Cryopreserved pooled hepatocytes are stored in liquid nitrogen prior to use. […] The final incubation volume is 500 μL. A control incubation is included for each compound tested where lysed cells are added instead of viable cells. Two control compounds are included with each species.
The reactions are stopped by transferring 50 μL of incubate to 100 μL methanol containing internal standard at the appropriate time points. The control (lysed cells) is incubated for 60 min only. The termination plates are centrifuged at 2500 rpm at 4° C. for 30 min to precipitate the protein. Following protein precipitation, the sample supernatants are combined in cassettes of up to 4 compounds and analysed using generic LC-MS/MS conditions. From a plot of In peak area ratio (compound peak area/internal standard peak area) against time, the gradient of the line is determined. Subsequently, half-life (t %) and intrinsic clearance (CLint) are calculated using the equations below: […]

Structure (SMILES)	hepatocyte CLint at 3 μM [µL/min/1e6 cells]
COCc1ccc(-c2ccc(NC(=O)C(C)(C)Oc3ccccc3)cc2)cc1 [Example 4, N-(4′-(methoxymethyl)-[1,1′-biphenyl]-4-yl)-2-methyl-2-phenoxypropanamide]	51
COCc1ccc(-c2ccc3c(c2)CCN3C(=O)C(C)(C)Oc2ccc(F)cc2)cc1 [Example 32, 2-(4-fluorophenoxy)-1-(5-(4-(methoxymethyl)phenyl)indolin-1-yl)-2-methylpropan-1-one]	65
COCc1ccc(-c2ccc(NC(=O)C3(Oc4ccc(F)cc4)CC3)cc2)cc1 [Example 53, 1-(4-fluorophenoxy)-N-(4′-(methoxymethyl)-[1,1′-biphenyl]-4-yl)cyclopropane-1-carboxamide]	71
CC(C)(Oc1ccc(F)cc1)C(=O)Nc1ccc(-c2ccc(CN3CCOCC3)cc2)cc1 [Example 25, 2-(4-fluorophenoxy)-2-methyl-N-(4′-(morpholinomethyl)-[1,1′-biphenyl]-4-yl)propenamide]	41
CC(C)Oc1ccc(-c2ccc(NC(=O)C(C)(C)Oc3ccc(F)cc3)cc2)cn1 [Example 92, 2-(4-fluorophenoxy)-N-(4-(6-isopropoxypyridin-3-yl)phenyl)-2-methylpropanamide]	47
